According to patent EP0673239B1, “AQUEOUS ANTIBIOTIC COMPOSITION FOR VETERINARY USE” (priority 1992, dated 1994):

Assay: Study 1: cloxacillin in milk after intramammary infusion of Injector 1A
Assay type: in vivo, cows
Conditions: single dose, micronised form in an aqueous base
Procedure: A number of studies have been conducted in cows to establish the following : - Study 1: Bioavailability of cloxacillin in bovine colostrum following intramammary infusion of Injector 1A. Study 2: Irritancy of aqueous cloxacillin in the bovine mammary gland.
As a secondary objective plasma levels of Cloxacillin were also measured, in order to assess the extent of systemic absorption.
Eight animals were infused with Injector 1A in all four quarters, and samples of milk were taken at the following intervals post infusion : 0.5, 1, 2, 3, 4, 6, 8, 12, 24, 32, 48, 72, 96, 120 and 144 hours.
Quarter results were recorded for all animals (it was not possible to get samples from two of the quarters due to problems associated with hand milking of animals normally used to being machine milked). […] A peak mean value of 5233.4 mg/L was found at the first sampling interval (0.5 hr) with an approximately exponential decline being noted over the next 72 hours.

SMILES: Cc1onc(-c2ccccc2Cl)c1C(=O)N[C@@H]1C(=O)N2[C@@H]1SC(C)(C)[C@@H]2C(=O)O [cloxacillin benzathine]
- Tmax (bovine, milk, read-out: time to high initial peak of antibiotic): ≤ 30 min
- duration of therapeutic levels: up to 72 hours
